Data on two compounds can be found in article PMC11249953, “c-KIT inhibitors reduce pathology and improve behavior in the Tg(SwDI) model of Alzheimer’s disease” (Life Science Alliance, 2024).

The target in experiment [1] is T1, KIT (V559D) (Homo sapiens, UniProt P10721, V559D).
T1 construct: DNA label for qPCR read-out (T7 phage fusion or DNA tag); purchased Eurofins DiscoverX Corporation; host or cells: T7 phage in E. coli (BL21-derived) or HEK-293
Description: KINOMEscan competition binding, KIT (V559D). The conditions noted are these: 10 µM compound; for remaining binding at 10 µM: lower = stronger binding, read-out: KIT (V559D) %Ctrl @ 10000nM (POC). The procedure: (§1) The KINOMEscan screening platform (Eurofins DiscoverX Corporation) was performed using active site-directed competition binding assay to quantitatively measure interactions between BK40143 and BK40197 and more than 450 human kinases and disease relevant mutant variants. […] Screening “hits” are identified by measuring the amount of kinase captured in test (BK40143 and BK40197) versus control samples by using a quantitative and ultra-sensitive qRT-PCR method that detects the associated DNA label. BK40143 and BK40197 were screened at 10 µM concentration, and results for primary screen binding interactions were reported as “% Ctrl” (POC), where lower numbers indicate stronger hits and calculated as follows: [test compound signal−positive control signal/negative control signal−positive control signal]×100
(§2) negative control = DMSO (100% Ctrl)
(§3) positive control = control compound (0% Ctrl)
(§4) Based on screening data from of profiled compounds, a proportional relationship between primary screening results and corresponding compound/target affinities can be described as binding constants (Kd values) for the indicated ranges of POC values with tighter binding (higher affinity) interactions associated with lower POC values and weaker binding (lower affinity) associated with higher POC values. Briefly, kinase-tagged T7 phage strains were grown in parallel in 24-well blocks in an E. coli host derived from the BL21 strain. E. coli were grown to log-phase and infected with T7 phage from a frozen stock (multiplicity of infection = 0.4) and incubated with shaking at 32°C until lysis (90–150 min). The lysates were centrifuged (6,000g) and filtered (0.2 μm) to remove cell debris. The remaining kinases were produced in HEK-293 cells and subsequently tagged with DNA for qRT-PCR detection. Streptavidin-coated magnetic beads were treated with biotinylated small molecule ligands for 30 min at RT to generate affinity resins for kinase assays. The liganded beads were blocked with excess biotin and washed with blocking buffer (1% BSA, 0.05% Tween 20, 1 mM DTT; SeaBlock [Pierce]) to remove unbound ligand and to reduce non-specific phage binding. Binding reactions were assembled by combining kinases, liganded affinity beads, and test compounds in 1x binding buffer (20% 0.17x PBS, 0.05% Tween 20, 6 mM DTT; SeaBlock). Test compounds were prepared as 100x stocks in 100% DMSO and directly diluted into the assay. All reactions were performed in polypropylene 384-well plates in a final volume of 0.02 ml. The assay plates were incubated at RT with shaking for 1 h and the affinity beads were washed with wash buffer (1x PBS, 0.05% Tween 20). […] The kinase concentration in the eluates was measured by qRT-PCR.

Experiment [2] addresses T2, PIP5K1A (Homo sapiens, UniProt Q99755).
T2 construct: DNA label for qPCR read-out (T7 phage fusion or DNA tag); purchased Eurofins DiscoverX Corporation; host or cells: T7 phage in E. coli (BL21-derived) or HEK-293
Briefly: KINOMEscan competition binding, PIP5K1A. The note with it: 10 µM compound; for remaining binding at 10 µM: lower = stronger binding, read-out: PIP5K1A %Ctrl @ 10000nM (POC). As to the method: as §1, §2, §3, §4

The target in experiment [3] is T3, MAP4K4 (Homo sapiens, UniProt O95819).
T3 construct: DNA label for qPCR read-out (T7 phage fusion or DNA tag); purchased Eurofins DiscoverX Corporation; host or cells: T7 phage in E. coli (BL21-derived) or HEK-293
T3 sequence (O95819 whole entry, the tested form may be a part): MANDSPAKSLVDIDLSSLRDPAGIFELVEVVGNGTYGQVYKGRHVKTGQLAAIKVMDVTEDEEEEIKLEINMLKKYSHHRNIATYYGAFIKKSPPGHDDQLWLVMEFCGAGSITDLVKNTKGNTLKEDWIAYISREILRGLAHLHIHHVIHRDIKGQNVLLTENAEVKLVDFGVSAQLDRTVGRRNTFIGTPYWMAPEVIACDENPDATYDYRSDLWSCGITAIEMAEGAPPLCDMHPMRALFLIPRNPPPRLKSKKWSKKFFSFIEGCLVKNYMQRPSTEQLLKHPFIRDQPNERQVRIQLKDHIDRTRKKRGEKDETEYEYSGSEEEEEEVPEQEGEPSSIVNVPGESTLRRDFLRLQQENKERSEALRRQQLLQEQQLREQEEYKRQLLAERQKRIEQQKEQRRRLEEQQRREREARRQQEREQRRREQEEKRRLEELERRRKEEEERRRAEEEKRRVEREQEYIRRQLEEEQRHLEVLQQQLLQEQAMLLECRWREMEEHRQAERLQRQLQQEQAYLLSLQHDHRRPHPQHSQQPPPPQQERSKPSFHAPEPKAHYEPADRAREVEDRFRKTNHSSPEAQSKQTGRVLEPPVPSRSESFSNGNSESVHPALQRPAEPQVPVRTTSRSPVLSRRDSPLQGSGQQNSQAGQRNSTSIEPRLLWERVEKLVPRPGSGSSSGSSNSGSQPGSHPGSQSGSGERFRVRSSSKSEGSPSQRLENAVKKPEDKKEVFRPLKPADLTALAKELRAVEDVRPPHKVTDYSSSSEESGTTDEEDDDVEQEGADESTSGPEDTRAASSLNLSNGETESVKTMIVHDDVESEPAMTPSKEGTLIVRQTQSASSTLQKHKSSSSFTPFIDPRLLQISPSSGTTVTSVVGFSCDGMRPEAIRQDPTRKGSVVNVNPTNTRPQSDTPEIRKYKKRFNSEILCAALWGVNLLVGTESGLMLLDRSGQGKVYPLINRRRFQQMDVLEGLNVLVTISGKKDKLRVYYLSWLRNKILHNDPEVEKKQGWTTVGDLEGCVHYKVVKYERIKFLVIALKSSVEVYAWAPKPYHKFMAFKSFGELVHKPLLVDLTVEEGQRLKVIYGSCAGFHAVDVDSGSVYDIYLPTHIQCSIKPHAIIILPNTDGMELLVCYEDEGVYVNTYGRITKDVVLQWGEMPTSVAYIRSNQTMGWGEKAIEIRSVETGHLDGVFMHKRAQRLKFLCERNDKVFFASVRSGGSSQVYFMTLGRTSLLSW
Briefly: KINOMEscan competition binding, MAP4K4. The note with it: 10 µM compound; for remaining binding at 10 µM: lower = stronger binding, read-out: MAP4K4 %Ctrl @ 10000nM (POC). The procedure: as §1, §2, §3, §4

The target of experiment [4] is T4, PDGFRb (Homo sapiens, UniProt P09619).
T4 construct: DNA label for qPCR read-out (T7 phage fusion or DNA tag); purchased Eurofins DiscoverX Corporation; host or cells: T7 phage in E. coli (BL21-derived) or HEK-293
Description: KINOMEscan competition binding, PDGFRb. The conditions noted are these: 10 µM compound; for remaining binding at 10 µM: lower = stronger binding, read-out: PDGFRb %Ctrl @ 10000nM (POC). The procedure:
as §1, §2, §3, §4

In experiment [5] the target is T5, PIKFYVE (Homo sapiens, UniProt Q9Y2I7).
T5 construct: DNA label for qPCR read-out (T7 phage fusion or DNA tag); purchased Eurofins DiscoverX Corporation; host or cells: T7 phage in E. coli (BL21-derived) or HEK-293
Briefly: KINOMEscan competition binding, PIKFYVE. The conditions noted are these: 10 µM compound; for remaining binding at 10 µM: lower = stronger binding, read-out: PIKFYVE %Ctrl @ 10000nM (POC). The procedure: as §1, §2, §3, §4

Experiment [6] has as its target T6, SRC (Homo sapiens, UniProt P12931).
T6 construct: DNA label for qPCR read-out (T7 phage fusion or DNA tag); purchased Eurofins DiscoverX Corporation; host or cells: T7 phage in E. coli (BL21-derived) or HEK-293
Description: KINOMEscan competition binding, SRC. The conditions noted are these: 10 µM compound; for remaining binding at 10 µM: lower = stronger binding, read-out: SRC %Ctrl @ 10000nM (POC). The procedure:
as §1, §2, §3, §4

For experiment [7], the target named is T7, PDGFRa (Homo sapiens, UniProt P16234).
T7 construct: DNA label for qPCR read-out (T7 phage fusion or DNA tag); purchased Eurofins DiscoverX Corporation; host or cells: T7 phage in E. coli (BL21-derived) or HEK-293
Description: KINOMEscan competition binding, PDGFRa. The note with it: 10 µM compound; for remaining binding at 10 µM: lower = stronger binding, read-out: PDGFRa %Ctrl @ 10000nM (POC). The procedure: as §1, §2, §3, §4

Experiment [8] has as its system pTau. Description: ELISA for pTau (S396) in brain lysates. It counts as in vivo, mouse. The conditions noted are these: Tg4510 mice; vs DMSO. The procedure: All samples were analyzed in parallel using the same reagents. A total of 25 μl soluble protein was incubated overnight at 4°C with 25 μl of a mixed bead solution. After washing, samples were incubated with 25 μl detection antibody solution for 1.5 h at RT. Streptavidin–phycoerythrin (25 μl) was added to each well containing the 25 μl of detection antibody solution. Samples were then washed and suspended in 100 μl of sheath fluid. Samples were then run on MAGPIX with Xponent software. The median fluorescent intensity data were analyzed using a five-parameter logistic or spline curve-fitting method for calculating analyte concentrations in samples. Specific pTau ser396 (KHB7031; Invitrogen), aggregated Aβ (KHB3491; Thermo Fisher Scientific), and Aβ42 (KHB3442; Invitrogen) were performed according to manufacturer’s protocol on tissue soluble extracts from brain lysates in 1XSTEN buffer.

Experiment [9] concerns the target T8, LCK (Homo sapiens, UniProt P06239).
T8 construct: DNA label for qPCR read-out (T7 phage fusion or DNA tag); purchased Eurofins DiscoverX Corporation; host or cells: T7 phage in E. coli (BL21-derived) or HEK-293
Description: KINOMEscan competition binding, LCK. The note with it: 10 µM compound; for remaining binding at 10 µM: lower = stronger binding, read-out: LCK %Ctrl @ 10000nM (POC). As to the method:
as §1, §2, §3, §4

Experiment [10] relates to beclin-1 in TgAPP mice. Description: Western blot for beclin-1 in brain. It counts as in vivo, mouse. The conditions noted are these: BK40143 5 mg/kg, BK40197 45 mg/kg, vs DMSO. As to the method:
Brain hemispheres from treated and untreated animals were lysed in 1x STEN buffer and protein concentrations were measured via BCA assay. Samples were normalized to 1 μg/μl and added to 2x Laemmli loading buffer + β-mercaptoethanol and boiled for 10 min to denature the protein. 15 μg of sample were then loaded in 4–12% Bis–Tris gels with MES buffer and electrophoresed, before transfer to a nitrocellulose membrane, where they were blocked with 5% dry milk in 1x TBST and incubated overnight with an anti-Beclin-1 primary antibody (cat. #3739S; Cell Signaling) or a phospho-c-KIT antibody (cat. #44-496G; Invitrogen). The next day, the membrane was washed and treated for 1 h with a goat anti-rabbit HRP-linked secondary followed by SuperSignal West Dura Extended Duration Substrate (cat. #37071; Thermo Fisher Scientific) and imaged on an Amersham Imager 600. This procedure was repeated the next day with an anti-mouse actin primary as a loading control.

In experiment [11] the target is T9, CSF1R (Homo sapiens, UniProt P07333).
T9 construct: DNA label for qPCR read-out (T7 phage fusion or DNA tag); purchased Eurofins DiscoverX Corporation; host or cells: T7 phage in E. coli (BL21-derived) or HEK-293
T9 sequence (P07333 20-972): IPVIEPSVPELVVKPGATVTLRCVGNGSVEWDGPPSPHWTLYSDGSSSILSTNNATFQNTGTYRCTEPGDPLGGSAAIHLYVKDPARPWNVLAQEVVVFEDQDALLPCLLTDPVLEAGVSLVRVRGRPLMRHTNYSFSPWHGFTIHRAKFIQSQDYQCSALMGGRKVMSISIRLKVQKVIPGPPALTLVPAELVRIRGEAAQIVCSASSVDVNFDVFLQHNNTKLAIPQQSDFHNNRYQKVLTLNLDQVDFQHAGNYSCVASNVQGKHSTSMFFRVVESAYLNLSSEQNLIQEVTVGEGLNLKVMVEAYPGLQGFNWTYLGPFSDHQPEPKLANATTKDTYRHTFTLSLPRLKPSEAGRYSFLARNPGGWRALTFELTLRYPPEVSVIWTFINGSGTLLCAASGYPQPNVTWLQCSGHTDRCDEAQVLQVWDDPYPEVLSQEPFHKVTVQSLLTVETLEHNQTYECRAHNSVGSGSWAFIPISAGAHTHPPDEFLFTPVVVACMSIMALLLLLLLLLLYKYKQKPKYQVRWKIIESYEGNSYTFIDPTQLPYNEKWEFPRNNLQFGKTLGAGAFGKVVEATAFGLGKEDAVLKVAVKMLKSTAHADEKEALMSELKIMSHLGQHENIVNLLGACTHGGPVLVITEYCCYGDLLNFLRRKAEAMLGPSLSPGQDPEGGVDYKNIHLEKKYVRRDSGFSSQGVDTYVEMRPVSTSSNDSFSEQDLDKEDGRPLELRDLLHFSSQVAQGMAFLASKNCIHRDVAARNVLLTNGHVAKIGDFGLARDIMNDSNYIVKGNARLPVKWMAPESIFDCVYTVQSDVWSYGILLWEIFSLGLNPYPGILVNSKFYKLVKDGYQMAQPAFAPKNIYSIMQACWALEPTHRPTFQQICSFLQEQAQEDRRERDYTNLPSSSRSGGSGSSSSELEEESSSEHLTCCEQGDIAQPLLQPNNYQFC
Description: KINOMEscan competition binding, CSF1R. The conditions noted are these: 10 µM compound; for remaining binding at 10 µM: lower = stronger binding, read-out: CSF1R %Ctrl @ 10000nM. The procedure: as §1, §2, §3, §4

T6 sequence (P12931 whole entry, the tested form may be a part): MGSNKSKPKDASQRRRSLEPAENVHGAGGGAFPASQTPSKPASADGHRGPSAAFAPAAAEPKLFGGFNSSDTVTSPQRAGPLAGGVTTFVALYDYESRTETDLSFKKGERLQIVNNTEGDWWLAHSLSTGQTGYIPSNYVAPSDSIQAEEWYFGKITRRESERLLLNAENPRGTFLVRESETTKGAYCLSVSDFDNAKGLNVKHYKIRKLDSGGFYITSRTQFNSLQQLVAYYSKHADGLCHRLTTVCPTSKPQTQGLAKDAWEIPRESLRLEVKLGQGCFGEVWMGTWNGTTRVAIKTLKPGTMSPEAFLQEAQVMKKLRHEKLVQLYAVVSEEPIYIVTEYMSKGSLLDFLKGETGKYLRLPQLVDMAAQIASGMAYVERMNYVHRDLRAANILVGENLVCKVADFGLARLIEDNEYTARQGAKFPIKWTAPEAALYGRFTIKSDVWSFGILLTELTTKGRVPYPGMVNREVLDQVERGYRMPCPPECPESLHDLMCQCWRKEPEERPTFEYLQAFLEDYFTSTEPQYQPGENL
T8 sequence (P06239 whole entry, the tested form may be a part): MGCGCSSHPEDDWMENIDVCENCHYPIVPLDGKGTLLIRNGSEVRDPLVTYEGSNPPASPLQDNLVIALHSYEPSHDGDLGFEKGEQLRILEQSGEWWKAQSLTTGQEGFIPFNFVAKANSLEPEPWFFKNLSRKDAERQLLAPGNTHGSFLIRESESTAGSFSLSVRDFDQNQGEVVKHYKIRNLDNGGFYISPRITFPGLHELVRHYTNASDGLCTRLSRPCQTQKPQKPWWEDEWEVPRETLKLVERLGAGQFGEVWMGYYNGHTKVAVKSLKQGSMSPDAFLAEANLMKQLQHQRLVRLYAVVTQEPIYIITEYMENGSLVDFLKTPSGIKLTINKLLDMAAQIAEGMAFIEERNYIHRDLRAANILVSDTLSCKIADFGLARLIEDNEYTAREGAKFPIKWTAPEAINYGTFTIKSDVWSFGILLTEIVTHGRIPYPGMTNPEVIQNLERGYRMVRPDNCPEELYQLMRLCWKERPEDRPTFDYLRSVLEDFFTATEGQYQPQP
T2 sequence (Q99755 whole entry, the tested form may be a part): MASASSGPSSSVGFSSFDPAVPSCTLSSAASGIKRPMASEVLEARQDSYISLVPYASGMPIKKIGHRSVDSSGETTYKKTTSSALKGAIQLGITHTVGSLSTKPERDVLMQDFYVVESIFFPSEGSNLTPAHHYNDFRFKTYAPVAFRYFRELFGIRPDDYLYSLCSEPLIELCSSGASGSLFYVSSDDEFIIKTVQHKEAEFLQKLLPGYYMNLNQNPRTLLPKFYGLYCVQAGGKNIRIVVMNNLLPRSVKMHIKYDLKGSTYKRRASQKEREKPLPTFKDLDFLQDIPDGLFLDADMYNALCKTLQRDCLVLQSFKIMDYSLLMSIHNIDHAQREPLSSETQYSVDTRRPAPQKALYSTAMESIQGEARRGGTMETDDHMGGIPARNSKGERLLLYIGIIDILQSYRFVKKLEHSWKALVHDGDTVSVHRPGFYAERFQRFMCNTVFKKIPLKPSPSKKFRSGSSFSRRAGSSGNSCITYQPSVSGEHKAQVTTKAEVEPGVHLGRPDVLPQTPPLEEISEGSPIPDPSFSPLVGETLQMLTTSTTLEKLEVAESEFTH
T1 sequence (P10721 26-976 V559D): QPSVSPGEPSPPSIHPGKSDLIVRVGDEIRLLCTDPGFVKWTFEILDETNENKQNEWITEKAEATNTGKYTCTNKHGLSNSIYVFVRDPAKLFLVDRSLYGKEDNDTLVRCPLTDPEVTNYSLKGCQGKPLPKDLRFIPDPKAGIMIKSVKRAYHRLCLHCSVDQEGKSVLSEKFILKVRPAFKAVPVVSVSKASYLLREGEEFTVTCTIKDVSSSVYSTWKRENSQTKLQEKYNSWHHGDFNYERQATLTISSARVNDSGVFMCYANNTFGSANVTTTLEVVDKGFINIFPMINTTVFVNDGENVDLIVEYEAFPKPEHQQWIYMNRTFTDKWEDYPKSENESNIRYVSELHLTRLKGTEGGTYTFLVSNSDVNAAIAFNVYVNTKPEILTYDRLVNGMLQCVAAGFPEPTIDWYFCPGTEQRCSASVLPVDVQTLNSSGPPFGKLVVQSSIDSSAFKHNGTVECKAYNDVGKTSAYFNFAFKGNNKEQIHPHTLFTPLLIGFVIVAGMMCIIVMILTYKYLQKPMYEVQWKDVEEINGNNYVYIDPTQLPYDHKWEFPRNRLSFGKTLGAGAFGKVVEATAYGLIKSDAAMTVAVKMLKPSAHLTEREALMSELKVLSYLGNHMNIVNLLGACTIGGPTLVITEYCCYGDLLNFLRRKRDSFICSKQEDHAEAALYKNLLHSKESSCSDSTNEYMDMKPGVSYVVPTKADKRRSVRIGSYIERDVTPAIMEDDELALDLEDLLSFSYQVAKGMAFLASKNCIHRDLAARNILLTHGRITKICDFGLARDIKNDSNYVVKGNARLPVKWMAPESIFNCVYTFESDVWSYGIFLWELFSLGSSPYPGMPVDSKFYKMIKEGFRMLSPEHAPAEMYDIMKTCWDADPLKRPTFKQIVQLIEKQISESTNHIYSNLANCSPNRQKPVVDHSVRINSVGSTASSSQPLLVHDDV

As to `Cc1cccc(-c2cc3nccc(N4CCOCC4)c3s2)c1` [BK40197], the inhibition at 10 µM in experiment [1] was found to be 99.7%; in [2], 94.9%; in experiment [3], 60%; in [4], 98.7%; in experiment [5], 99.6%; in [6] it was 19%. Besides, the inhibition at 10 µM in [7] was determined as 74%; in [9], 9%; in experiment [11], 77%. The remaining binding at 10 µM in experiment [1] was determined as 0.35%; in experiment [2], 5.1%; in experiment [3] it was 40%; in experiment [4], 1.3%; in experiment [5], 0.4%; in [6] it was 81%. The remaining binding at 10 µM came to 26% in [7], 91% in [9] and 23% in [11]. Further, the “pTau (396) concentration in brain lysate (ELISA)” value in experiment [8] is “significantly reduced Aβ and pTau (396) concentrations”. Also, the “beclin-1 levels in brain (Western blot)” value in [10] was “significant increases in levels of beclin-1”.

Regarding `Cc1cccc(-c2cc3nccc(Nc4ccccc4)c3s2)c1` [BK40143], the inhibition at 10 µM in experiment [1] was determined as 99.8%; in [2] it was 68%; in experiment [3] it was 93.2%; in experiment [4], 99.9%; in [5], 32%; in experiment [6], 84.7%. Further, the inhibition at 10 µM in experiment [7] came out at 98.1%; in experiment [9], 92.9%; in experiment [11], 62%. In addition, the remaining binding at 10 µM is 0.25% in experiment [1]; 32% in [2]; 6.8% in experiment [3]; 0.1% in experiment [4]; 68% in experiment [5]; 5.3% in experiment [6]. In addition, the remaining binding at 10 µM in experiment [7] is 1 to 10%; in experiment [9], 7.1%; in [11], 38%. Moreover, the “pTau (396) concentration in brain lysate (ELISA)” value in experiment [8] is “significantly reduced Aβ and pTau (396) concentrations”. In [10], the “beclin-1 levels in brain (Western blot)” value is listed as “significant increases in levels of beclin-1”.
